The target in the experiment is IgE-Tb binding to soluble IgE receptor FcεR1α (Y131A mutation) (Homo sapiens, UniProt P01854, N146Q/N252Q). The experiment can be described thus: In vitro FRET assay: inhibition of binding of IgE-Tb to receptor FcεR1α-Y131A-AF488. Conditions: read-out: FRET IC50 range.
IgE-Tb binding to soluble IgE receptor FcεR1α (Y131A mutation), sequence (P01854 whole entry N146Q/N252Q, looked up): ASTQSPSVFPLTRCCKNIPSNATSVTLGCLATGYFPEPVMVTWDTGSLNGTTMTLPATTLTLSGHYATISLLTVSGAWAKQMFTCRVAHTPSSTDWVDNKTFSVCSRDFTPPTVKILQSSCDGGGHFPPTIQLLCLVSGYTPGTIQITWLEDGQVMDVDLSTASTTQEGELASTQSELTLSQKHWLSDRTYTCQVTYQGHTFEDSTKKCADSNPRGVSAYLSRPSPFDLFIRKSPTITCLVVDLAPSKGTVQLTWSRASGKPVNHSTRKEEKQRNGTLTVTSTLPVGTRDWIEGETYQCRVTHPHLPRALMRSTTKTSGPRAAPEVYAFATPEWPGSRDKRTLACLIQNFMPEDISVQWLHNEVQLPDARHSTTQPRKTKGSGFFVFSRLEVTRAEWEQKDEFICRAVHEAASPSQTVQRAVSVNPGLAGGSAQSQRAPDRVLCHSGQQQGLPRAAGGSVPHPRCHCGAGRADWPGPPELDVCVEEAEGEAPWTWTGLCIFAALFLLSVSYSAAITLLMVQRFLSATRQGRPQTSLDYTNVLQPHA

Regarding `O=S(=O)(NC1CC(F)(F)C1)c1cc2c(c3cnc(C4CC4)cc13)CCC2n1cnnc1NCC1CC1` (centres unmarked) [Example 81, 3-cyclopropyl-7-[3-(cyclopropylmethylamino)-1,2,4-triazol-4-yl]-N-(3,3-difluorocyclobutyl)-8,9-dihydro-7H-cyclopenta[h]isoquinoline-5-sulfonamide], the IC50 is 100 to 2000 nM.

As to `CC(C)(F)CNS(=O)(=O)c1cc2c(c3cnc(C4CC4)cc13)CC[C@H]2n1ccnc1NCC1CC1` (single isomer, unassigned) [Example 12, (7R*)-3-cyclopropyl-7-[2-(cyclopropylmethylamino)imidazol-1-yl]-N-(2-fluoro-2-methylpropyl)-8,9-dihydro-7H-cyclopenta[h]isoquinoline-5-sulfonamide], the IC50 fell in the range of 100 to 2000 nM.

Regarding `CC(C)CNS(=O)(=O)c1cc2c(c3cnc(C4CC4)cc13)CCC2Nc1c(Nc2cccnc2)c(=O)c1=O` (centres unmarked) [Example 84, 3-cyclopropyl-7-[[3,4-dioxo-2-(pyridin-3-ylamino)cyclobuten-1-yl]amino]-N-(2-methylpropyl)-8,9-dihydro-7H-cyclopenta[h]isoquinoline-5-sulfonamide], the IC50 lay within 10 to 50 nM.

Take `Cc1cc(C(=O)NC2CN(C3CCc4c3cc(S(=O)(=O)NCC(C)(C)F)c3cc(C5CC5)ncc43)C2)n(C)n1` (centres unmarked) [Example 59, N-[1-[3-cyclopropyl-5-[(2-fluoro-2-methylpropyl)sulfamoyl]-8,9-dihydro-7H-cyclopenta[h]isoquinolin-7-yl]azetidin-3-yl]-2,5-dimethylpyrazole-3-carboxamide]: the IC50 is 100 to 2000 nM.

Consider `CC(C)CNS(=O)(=O)c1cc2c(c3cnc(C4CC4)cc13)CCC2N` (centres unmarked) [Example 50, 7-amino-3-cyclopropyl-N-(2-methylpropyl)-8,9-dihydro-7H-cyclopenta[h]isoquinoline-5-sulfonamide], for which the IC50 lay within 100 to 2000 nM.

Consider `[2H]C([2H])(NS(=O)(=O)c1cc2c(c3cnc(C4CC4)cc13)CCC2N)C(C)C` (centres unmarked) [Example 34, 7-amino-3-cyclopropyl-N-(1,1-dideuterio-2-methylpropyl)-8,9-dihydro-7H-cyclopenta[h]isoquinoline-5-sulfonamide], for which the IC50 lay within 100 to 2000 nM.

With `Cc1nnc(-c2ccc(NC3CCc4cc(S(=O)(=O)NCC(C)(C)F)c5cc(C6CC6)ncc5c43)cn2)o1` (centres unmarked) [Example 76, 3-cyclopropyl-N-(2-fluoro-2-methylpropyl)-9-[[6-(5-methyl-1,3,4-oxadiazol-2-yl)pyridin-3-yl]amino]-8,9-dihydro-7H-cyclopenta[h]isoquinoline-5-sulfonamide], the concentration for half-maximal inhibition (IC50) lay in the range of 100 to 2000 nM.

`CC(C)(F)CNS(=O)(=O)c1cc2c(c3cnc(C4CC4)cc13)CCC2Nc1cccnc1` (centres unmarked) [Example 31, 3-cyclopropyl-N-(2-fluoro-2-methylpropyl)-7-(pyridin-3-ylamino)-8,9-dihydro-7H-cyclopenta[h]isoquinoline-5-sulfonamide]: the 50% inhibitory concentration (IC50) fell in the range of 10 to 50 nM.

For the compound `CC(C)CNS(=O)(=O)c1cc2c(c3cnc(C4CC4)cc13)CCC2Nc1nncn1-c1cccnc1` (centres unmarked) [Example 90, 3-cyclopropyl-N-(2-methylpropyl)-7-[(4-pyridin-3-yl-1,2,4-triazol-3-yl)amino]-8,9-dihydro-7H-cyclopenta[h]isoquinoline-5-sulfonamide], the IC50 fell in the range of 100 to 2000 nM.

With `Cc1cc(Nc2nncn2[C@H]2CCc3c2cc(S(=O)(=O)NCC(C)(C)F)c2cc(C4CC4)ncc32)n(C)n1` (single isomer, unassigned) [Example 86, (7R*)-3-cyclopropyl-7-[3-[(2,5-dimethylpyrazol-3-yl)amino]-1,2,4-triazol-4-yl]-N-(2-fluoro-2-methylpropyl)-8,9-dihydro-7H-cyclopenta[h]isoquinoline-5-sulfonamide], the IC50 was 50 to 100 nM.

In the case of `CC(C)(F)CNS(=O)(=O)c1cc2c(c3cnc(C4CC4)cc13)C(Oc1cccnc1)CC2` (centres unmarked) [Example 93, 3-cyclopropyl-N-(2-fluoro-2-methylpropyl)-9-pyridin-3-yloxy-8,9-dihydro-7H-cyclopenta[h]isoquinoline-5-sulfonamide], the IC50 was in the range of 100 to 2000 nM.

As to `CC(C)(F)CNS(=O)(=O)c1cc2c(c3cnc(C4CC4)cc13)CC[C@@H]2NC(=O)C1CN(C(=O)OC(C)(C)C)C1` (single isomer, unassigned) [Example 56, tert-butyl 3-[[(7R*)-3-cyclopropyl-5-[(2-fluoro-2-methylpropyl)sulfamoyl]-8,9-dihydro-7H-cyclopenta[h]isoquinolin-7-yl]carbamoyl]azetidine-1-carboxylate], the IC50 was in the range of 100 to 2000 nM.

On to `CC(C)CNS(=O)(=O)c1cc2c(c3cnc(C4CC4)cc13)C(C)(O)CC2` (centres unmarked) [Example 64, 3-cyclopropyl-9-hydroxy-9-methyl-N-(2-methylpropyl)-7,8-dihydrocyclopenta[h]isoquinoline-5-sulfonamide], for which the IC50 fell in the range of 100 to 2000 nM.

On to `Cc1cc(CNC(=O)NC2CCc3cc(S(=O)(=O)NCC(C)C)c4cc(C5CC5)ncc4c32)n(C)n1` (centres unmarked) [Example 46, 1-[3-cyclopropyl-5-(2-methylpropylsulfamoyl)-8,9-dihydro-7H-cyclopenta[h]isoquinolin-9-yl]-3-[(2,5-dimethylpyrazol-3-yl)methyl]urea], for which the IC50 was in the range of 100 to 2000 nM.

Take `O=S(=O)(NC1CC(F)C1)c1cc2c(c3cnc(C4CC4)cc13)CCC2n1cnnc1NCC1CC1` (centres unmarked) [Example 82, 3-cyclopropyl-7-[3-(cyclopropylmethylamino)-1,2,4-triazol-4-yl]-N-(3-fluorocyclobutyl)-8,9-dihydro-7H-cyclopenta[h]isoquinoline-5-sulfonamide]: the IC50 fell in the range of 100 to 2000 nM.

As for `CC(C)(F)CNS(=O)(=O)c1cc2c(c3cnc(C4CC4)cc13)C(Nc1ccc3c(c1)CC(=O)N3)CC2` (centres unmarked) [Example 29, 3-cyclopropyl-N-(2-fluoro-2-methylpropyl)-9-[(2-oxo-1,3-dihydroindol-5-yl)amino]-8,9-dihydro-7H-cyclopenta[h]isoquinoline-5-sulfonamide], the IC50 lay in the range of 100 to 2000 nM.

For `CC(C)CNS(=O)(=O)c1cc2c(c3cnc(C4CC4)cc13)C(Nc1nncn1-c1cccc3c1nnn3C)CC2` (centres unmarked) [Example 2, 3-cyclopropyl-N-isobutyl-9-[[4-(1-methylbenzotriazol-4-yl)-1,2,4-triazol-3-yl]amino]-8,9-dihydro-7H-cyclopenta[h]isoquinoline-5-sulfonamide], the 50% inhibitory concentration (IC50) was in the range of 50 to 100 nM.

The values above are taken from patent publication US20240092773A1, “DIHYDRO-CYCLOPENTA-ISOQUINOLINE SULFONAMIDES DERIVATIVES” (UCB Biopharma SRL, priority 2019, published 2024).
